Results taken from US20220339141A1, “COMBINATION TREATMENT WITH A P53 REACTIVATOR AND AN INHIBITOR OF AN ANTIAPOPTOTIC BCL-2 FAMILY PROTEIN” (Aprea Therapeutics AB, priority 2019, published 2022).
Like-named read-outs stand apart in the source and are kept apart here.

Key:
AML cell lines [1] = assay: CellTiter-Glo cell viability, results summarised over the cell line panel; conditions: for IC50: read-out: IC50 values, range over cell lines
Protocol: (§7) Plates was taken from the incubator to reach room temperature about 30 min. 100 μL CellTiter-Glo was added to all wells (except edge wells). Plates were then shaken on a plate shaker for 3 minutes at room temperature; thereafter the plates were set for 10 min at room temperature to allow cell lysis to appear. The luminescence was measured using the PerkinElmer Victor×4 instrument using the built-in program according to Instruction 11. Combenefit 2.021 was used for data analysis.
(§8) For IC50 determinations, the serial dilution of compounds was performed in cell culture medium based on 1.5- or 2-fold dilution factor. The serially diluted compounds were added to the cells and incubated for 72 h followed by cell viability test using the CTG assay. For each concentration, the current viability values were calculated and IC50 values were determined by XLfit software version 5.5.0.5 (a Microsoft Excel-based plug-in to perform regression, curve fitting and statistical analysis).
(§9) Combenefit performs combination analyses using the standard Loewe, Bliss and HSA methods. In the HSA model, the synergy score quantifies the excess over the highest single drug response. In the Loewe model, the synergy score quantifies the excess over the expected response if the two drugs are the same compound.
(§10) A “combination index” (CI) is then calculated as the measured cell viability of the sample with two co-incubated substances divided by the predicted cell viability.
(§11) If the measured cell viability for a combination of two substances is higher than the cell viability for one or both substances, the effect is considered antagonistic. If the predicted viability is very low, the quote “measured viability/predicted viability” may give false CI values.

MV4-11 = assay: CellTiter-Glo cell viability, 72 h, single agents and combination dose matrix; assay type: cell-based; conditions: Homo sapiens
Protocol: For MV4-11: IMEM (Sigma Cat. no. I3390), 10% FBS (Sigma Cat. no. F084) and 1% L-glutamine (Sigma, Cat.no. G7513).
(§1) 75 cm^2 flask (100% confluent) cells was transfer to a 15 ml tube and centrifuged at 1000 RPM for 5 min. Then supernatant was discarded, and cell pellet was resuspended in 6 ml medium. The cells were counted in the TC20 automated cell counter. 10 ml cell culture medium was prepared with 60,000 cells/ml, corresponding to 3,000 cells when 50 μl is seeded out (for MOLM-13, 12,000 cells were used). Cells were seeded in 96-well plates in column 2-12, row B-G, for blank, 100 μL cell culture medium was added. Plates were incubated overnight at 37° C.
(§2) Combenefit 2.021 was used for data analysis.
(§3) The CellTiter-Glo® Luminescent Cell Viability Assay is a homogeneous method of determining the number of viable cells in culture based on quantitation of the ATP present, an indicator of metabolically active cells. The homogeneous assay procedure involves adding the single reagent (CellTiter-Glo® Reagent) directly to cells cultured in serum-supplemented medium. The homogeneous “add-mix-measure” format results in cell lysis and generation of a luminescent signal proportional to the amount of ATP present. The amount of ATP is directly proportional to the number of cells present in culture.
(§4) The experimental dose-response surface that delineates combination effects in concentration space, is first read by the Combenefit software as a matrix of % of the control value across concentrations. […] Based on the two single agent dose response curves, a model-based combination dose-response surface is derived. This surface provides a “reference” dose-response surface for a non-synergistic (additive/independent) combination, whose characteristics are determined by the selected model (i.e., Loewe, Bliss or HSA). The experimental combination dose response surface is then compared to the model-generated one, resulting in a synergy distribution in concentration space.
(§5) This synergy distribution can be further summarized via various metrics (Di Veroli. C, Bioinformatics, 32(18), 2016, 2866-2868) as follows: • SYN_MAX—the maximum level of synergy observed. • SYN_SUM—the sum of synergy observed in concentration logarithmic space. For instance, an integrated synergy of 50 is equivalent to an extra synergistic effect of 50% which is spread over a square of 1 log×1 log in the 2-d log-concentration space.

MOLM-13 = assay: as above; assay type: cell-based; conditions: Homo sapiens, MOLM-13, 72 h, single agent
Protocol: For MOLM-13, RPMI (R8758, Sigma Aldrich)+10% FBS (F0804, Sigma Aldrich), heat inactivated at 56° C. for 60 min.
as §1, §2, §3, §4, §5

KG-1 = assay: as above; assay type: cell-based; conditions: Homo sapiens
Protocol: (§6) For cell lines KBM3, KG-1 and HL-60: IMEM (Sigma Cat. no. I3390), 20% FBS (Sigma Cat. no. F084) and 1% L-glutamine (Sigma, Cat.no. G7513).
as §1, §2, §3, §4, §5

KBM-3 = assay: as above; assay type: cell-based
Protocol: as §6, §1, §2, §3, §4, §5

HL-60 = assay: as above; assay type: cell-based; conditions: Homo sapiens
Protocol: as §6, §1, §2, §3, §4, §5

SKM-1 = assay: as above; assay type: cell-based; conditions: single agent
Protocol: For SKM-1, RPMI (R8758, Sigma Aldrich)+20% FBS (F0804, Sigma Aldrich), heat inactivated at 56° C. for 60 min.
as §1, §2, §3
The experimental dose-response surface that delineates combination effects in concentration space, is first read by the Combenefit software as a matrix of % of the control value across concentrations. […] Based on the two single agent dose response curves, a model-based combination dose-response surface is derived. This surface provides a “reference” dose-response surface for a non-synergistic (additive/independent) combination, whose characteristics are determined by the selected model (i.e., Loewe, Bliss or HSA). The experimental combination dose response surface is then compared to the model-generated one, resulting in a synergy distribution in concentration space. […]

AML cell lines [2] = system: AML cell lines
Protocol: as §7, §8, §9, §10, §11

[3] = Homo sapiens, SKM-1 (MDS, p53 R248Q)
[4] = MV4-11 (AML, p53 R248W), single agent
[5] = MOLM-13 (AML, p53 WT), separate study of Example 3
[6] = KG-1 (AML, p53 Intron6/splice), single agent
[7] = KBM-3 (AML, p53 WT), single agent
[8] = HL-60 (AML, p53 Null (deletion)), single agent

IC50 (MV4-11; MV4-11, single agent, Example 4) [nM] | IC50 (MOLM-13; MOLM-13, Example 4) [nM] | IC50 (HL-60; HL-60, single agent, Example 4) [nM] | IC50 (SKM-1; [3]) [nM] | IC50 (MV4-11; [4]) [nM] | IC50 (MOLM-13; MOLM-13 (AML, p53 WT)) [nM] | IC50 (HL-60; [8]) [nM] | SMILES | single agent anti-proliferative activity (AML cell lines [1]) | IC50 (AML cell lines [1]) [nM] | IC50 (KG-1; KG-1, single agent, Example 4) [nM] | IC50 (KBM-3; KBM-3, single agent, Example 4) [nM] | single agent cytotoxic activity (AML cell lines [1]; MOLM-13 and SKM-1) | IC50 (AML cell lines [1]; single agent, cell lines of Table 3) [nM] | IC50 (MOLM-13; [5]) [nM] | IC50 (KG-1; [6]) [nM] | IC50 (KBM-3; [7]) [nM] | IC50 (SKM-1; SKM-1 (MDS/AML, p53 R248Q homo/hemizygous), separate study of Example 3) [nM] | IC50 (MV4-11; MV4-11, single agent, Example 3) [nM] | single agent cytotoxic activity (AML cell lines [2]) | IC50 (KBM-3; KBM-3, single agent, Example 3) [nM]
1.4 | 2 | 7 | – | – | – | – | COc1ccccc1-c1nccc(COc2ccccc2CC(Oc2ncnc3sc(-c4ccc(F)cc4)c(-c4ccc(OCCN5CCN(C)CC5)c(Cl)c4C)c23)C(=O)O)n1 (stereo in doubt) [MIK665, (R)-2-((5-(3-chloro-2-methyl-4-(2-(4-methylpiperazin-1-yl)ethoxy)phenyl)-6-(4-fluorophenyl)thieno[2,3-d]pyrimidin-4-yl)oxy)-3-(2-((2-(2-methoxyphenyl)pyrimidin-4-yl)methoxy)phenyl)propanoic acid] | dose-dependent anti-proliferative activity | 1 to 600 | 600 | 40 | – | – | – | – | – | – | – | – | –
– | – | – | 70 | 160 | 1 | 60 | CC1(C)CCC(CN2CCN(c3ccc(C(=O)NS(=O)(=O)c4ccc(NCC5CCOCC5)c([N+](=O)[O-])c4)c(Oc4cnc5[nH]ccc5c4)c3)CC2)=C(c2ccc(Cl)cc2)C1 [ABT-199, 2-(1H-pyrrolo[2,3-b]pyridin-5-yloxy)-4-(4-((2-(4-chlorophenyl)-4,4-dimethylcyclohex-1-enyl)methyl)piperazin-1-yl)-N-(3-nitro-4-(((tetrahydro-2H-pyran-4-yl)methyl)amino)phenylsulfonyl)benzamide] | dose-dependent anti-proliferative activity | – | – | – | dose-dependent cytotoxic activity | 1 to 1500 | 1.4 | 1500 | 1360 | – | – | – | –
– | – | – | 1090 | 2500 | 9500 | 8100 | COCC1(CO)C(=O)C2CCN1CC2 (stereo not drawn) [APR-246, 2-(hydroxymethyl)-2-(methoxymethyl)quinuclidin-3-one] | dose-dependent anti-proliferative activity | 1000 to 11000 | – | – | – | – | – | 11000 | 3700 | – | – | – | –
– | – | – | – | – | – | – | O=C1C2CCN(CC2)C1CNC(=O)C(F)(F)F (stereo not drawn) [Compound A, 2,2,2-trifluoro-N-((3-oxoquinuclidin-2-yl)methyl)acetamide] | – | – | – | – | – | – | 3600 | – | – | 660 | 1000 | dose-dependent cytotoxic activity | 1700
